In experiment [1] the test system is Splenocytes (B cell proliferation stimulated with anti-IgM F(ab′)2). The experiment in a line: Splenic Cell Proliferation Assay. The experiment is classed as cell-based. To be noted: Mus musculus, Splenocyte, 72 h, CD1 mouse splenocytes, 2.5 ug/ml anti-IgM F(ab′)2 for 72 h, Cell Titer-Glo; read-out: EC50 (nM), Inhibition of splenic cell proliferation. As to the method:
Splenic Cell Proliferation Assay
Splenocytes were obtained from 6 week old male CD1 mice (Charles River Laboratories Inc.). Mouse spleens were manually disrupted in PBS and filtered using a 70 um cell strainer followed by ammonium chloride red blood cell lysis. Cells were washed, resuspended in Splenocyte Medium (HyClone RPMI supplemented with 10% heat-inactivated FBS, 0.5× non-essential amino acids, 10 mM HEPES, 50 uM beta mercaptoethanol) and incubated at 37° C., 5% CO2 for 2 h to remove adherent cells. Suspension cells were seeded in 96 well plates at 50,000 cells per well and incubated at 37° C., 5% CO2 for 1 h. Splenocytes were pre-treated in triplicate with 10,000 nM curves of Formula 1 compounds for 1 h, followed by stimulation of B cell proliferation with 2.5 ug/ml anti-IgM F(ab′)2 (Jackson ImmunoResearch) for 72 h. Cell proliferation was measured by Cell Titer-Glo Luminescent Assay (Promega). EC50 values (50% proliferation in the presence of compound as compared to vehicle treated controls) were calculated from dose response compound curves using GraphPad Prism Software.

Experiment [2] addresses recombinant human full-length Bruton Agammaglobulinemia Tyrosine Kinase (Btk) (Homo sapiens (Human), UniProt Q06187). Briefly: Btk Kinase Inhibition Assay (fluorescence polarization). The experiment is classed as biochemical. To be noted: 10 μM ATP, 250 μM substrate, 60 minutes; Ki calculated from IC50 using the Cheng-Prusoff equation. As to the method:
Kinase Binding Btk Kinase Inhibition Assay
Fluorescence polarization-based kinase assays were performed in 384 well-plate format using histidine tagged recombinant human full-length Bruton Agammaglobulinemia Tyrosine Kinase (Btk) and a modified protocol of the KinEASE™ FP Fluorescein Green Assay supplied from Millipore. Kinase reaction were performed at room temperature for 60 minutes in presence of 250 μM substrate, 10 μM ATP and variable test article concentrations. The reaction was stopped with EDTA/kinase detection reagents and the polarization measured on a Tecan 500 instrument. From the dose-response curve obtained, the IC50 was calculated using Graph Pad Prisms® using a non linear fit curve. The Km for ATP on each enzyme was experimentally determined and the Ki values calculated using the Cheng-Prusoff equation (see: Cheng Y, Prusoff W H. (1973) Relationship between the inhibition constant (K1) and the concentration of inhibitor which causes 50 percent inhibition (I50) of an enzymatic reaction”. Biochem Pharmacol 22 (23): 3099-108).

The values below come from patent US9796716B2, “Selective inhibitors of Tec and Src protein kinase families” (Pharmascience, Inc., priority 2012, dated 2017).

Chain of recombinant human full-length Bruton Agammaglobulinemia Tyrosine Kinase (Btk) (Q06187 whole entry): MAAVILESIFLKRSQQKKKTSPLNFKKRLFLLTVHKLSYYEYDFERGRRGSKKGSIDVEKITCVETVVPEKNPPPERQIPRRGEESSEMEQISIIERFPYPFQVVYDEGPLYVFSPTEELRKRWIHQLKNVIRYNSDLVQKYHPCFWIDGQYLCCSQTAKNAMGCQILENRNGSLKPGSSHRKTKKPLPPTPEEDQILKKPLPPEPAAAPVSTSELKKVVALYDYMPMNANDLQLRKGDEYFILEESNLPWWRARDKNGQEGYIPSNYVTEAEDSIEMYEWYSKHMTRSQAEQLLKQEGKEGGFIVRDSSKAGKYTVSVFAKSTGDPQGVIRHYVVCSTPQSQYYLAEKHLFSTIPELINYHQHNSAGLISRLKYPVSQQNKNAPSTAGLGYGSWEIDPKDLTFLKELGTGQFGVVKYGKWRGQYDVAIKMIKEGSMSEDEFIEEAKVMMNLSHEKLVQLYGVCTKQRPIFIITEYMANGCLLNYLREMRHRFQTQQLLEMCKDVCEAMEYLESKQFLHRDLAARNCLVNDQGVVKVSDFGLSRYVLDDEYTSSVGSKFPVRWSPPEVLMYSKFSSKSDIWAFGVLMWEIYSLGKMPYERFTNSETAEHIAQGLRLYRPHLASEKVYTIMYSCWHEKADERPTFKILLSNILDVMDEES

Consider `Cc1ccc(COc2cc(F)cc(Oc3ccc(-c4nn(C5CCCC5)c5ncnc(N)c45)cc3)c2)cn1` [Compound 84], for which the EC50 in experiment [1] was less than 100 nM. For the same compound, in experiment [2], the Ki is less than 100 nM.

For the compound `Cn1nc(-c2ccc(Oc3cccc(OCc4ccccc4)c3)cc2)c2c(N)ncnc21` [Compound 16], the EC50 in experiment [1] is 100 to 1000 nM. Moreover, the Ki in experiment [2] is less than 100 nM.

Turning to `Cn1nc(-c2ccc(Oc3cccc(OCc4ccccc4C(F)(F)F)c3)cc2)c2c(N)ncnc21` [Compound 20], in experiment [1], the EC50 was less than 100 nM. In experiment [2], the Ki was less than 100 nM.

As for `Cn1cncc1COc1cc(F)cc(Oc2ccc(-c3nn(C4CCOCC4)c4ncnc(N)c34)cc2F)c1` [Compound 72], the EC50 in experiment [1] lay within 100 to 1000 nM. For the same compound, in experiment [2], the Ki is less than 100 nM.

In the case of `Nc1ncnc2c1c(-c1ccc(Oc3cccc(OCc4cncs4)c3)cc1)nn2CCN1CCOCC1` [Compound 44], the EC50 in experiment [1] was less than 100 nM. In addition, in experiment [2], the Ki is less than 100 nM.

Regarding `Cn1cncc1COc1cc(F)cc(Oc2ccc(-c3nn(C4CCOCC4)c4ncnc(N)c34)c(F)c2)c1` [Compound 73], in experiment [1], the EC50 was less than 100 nM. Moreover, the Ki in experiment [2] is less than 100 nM.

Take `Nc1ncnc2c1c(-c1ccc(Oc3cccc(OCc4cncs4)c3)cc1)nn2CCc1ccccc1` [Compound 42]: the EC50 in experiment [1] was less than 100 nM. For the same compound, the Ki in experiment [2] was less than 100 nM.

On to `CN(C)CCn1nc(-c2ccc(Oc3cccc(OCc4cncs4)c3)cc2)c2c(N)ncnc21` [Compound 34], for which, in experiment [1], the EC50 lay within 100 to 1000 nM. Moreover, the Ki in experiment [2] was less than 100 nM.

Consider `N#Cc1ccccc1COc1cccc(Oc2ccc(-c3nn(C4CCOCC4)c4ncnc(N)c34)cc2)c1` [Compound 35], for which the EC50 in experiment [1] was less than 100 nM. Moreover, the Ki in experiment [2] is less than 100 nM.

Regarding `Cc1ncc(COc2cc(F)cc(Oc3ccc(-c4nn(CCN5CCOCC5)c5ncnc(N)c45)cc3)c2)s1` [Compound 52], the EC50 in experiment [1] is less than 100 nM. The Ki in experiment [2] was less than 100 nM.

As to `Nc1ncnc2c1c(-c1ccc(Oc3cccc(OCc4cncs4)c3)cc1)nn2CCN1CCCC1` [Compound 39], in experiment [1], the EC50 fell in the range of 100 to 1000 nM. Moreover, the Ki in experiment [2] is less than 100 nM.

As for `Nc1ncnc2c1c(-c1ccc(Oc3cc(F)cc(OCc4cnccn4)c3)cc1)nn2C1CCOCC1` [Compound 69], the EC50 in experiment [1] was less than 100 nM. Also, the Ki in experiment [2] was less than 100 nM.

Turning to `Nc1ncnc2c1c(-c1ccc(Oc3cc(F)cc(OCc4cncnc4)c3)cc1)nn2C1CCOCC1` [Compound 68], in experiment [1], the EC50 is less than 100 nM. Besides, the Ki in experiment [2] is less than 100 nM.

For the compound `Cn1nc(-c2ccc(Oc3cccc(COc4ccccc4C(F)(F)F)c3)cc2)c2c(N)ncnc21` [Compound 31], the EC50 in experiment [1] is 100 to 1000 nM. Also, the Ki in experiment [2] was less than 100 nM.

Regarding `Nc1ncnc2c1c(-c1ccc(Oc3cccc(OCc4cncs4)c3)cc1)nn2CCc1ccncc1` [Compound 41], the EC50 in experiment [1] lay in the range of 100 to 1000 nM. In experiment [2], the Ki was less than 100 nM.

Regarding `Cc1ccc(COc2cc(F)cc(Oc3ccc(-c4nn(CCO)c5ncnc(N)c45)cc3)c2)cn1` [Compound 88], the EC50 in experiment [1] was less than 100 nM. The Ki in experiment [2] is less than 100 nM.

In the case of `Cc1ncc(COc2cc(F)cc(Oc3ccc(-c4nn(CCO)c5ncnc(N)c45)cc3)c2)cn1` [Compound 110], the EC50 in experiment [1] lay in the range of 100 to 1000 nM. Further, in experiment [2], the Ki was less than 100 nM.

Consider `Cc1ncc(COc2cc(F)cc(Oc3ccc(-c4nn(C(C)C)c5ncnc(N)c45)cc3)c2)n1C` [Compound 123], for which, in experiment [1], the EC50 was less than 100 nM. In addition, the inhibition constant (Ki) in experiment [2] was less than 100 nM.

Regarding `Cc1ncc(COc2cc(F)cc(Oc3ccc(-c4nn(C(CO)CCl)c5ncnc(N)c45)cc3)c2)s1` (centres unmarked) [Compound 109], the EC50 in experiment [1] is less than 100 nM. The Ki in experiment [2] was less than 100 nM.

Turning to `CC(C)n1nc(-c2ccc(Oc3cc(F)cc(OCc4cncn4C)c3)cc2F)c2c(N)ncnc21` [Compound 98], in experiment [1], the EC50 is less than 100 nM. In addition, the Ki in experiment [2] is less than 100 nM.

Regarding `COc1cccc(COc2cccc(Oc3ccc(-c4nn(C5CCCC5)c5ncnc(N)c45)cc3)c2)c1` [Compound 10], the EC50 in experiment [1] lay within 100 to 1000 nM. For the same compound, the Ki in experiment [2] is less than 100 nM.

Turning to `Nc1ncnc2c1c(-c1ccc(Oc3cc(F)cc(OCc4cnc[nH]4)c3)cc1)nn2C1CCOCC1` [Compound 93], the EC50 in experiment [1] lay within 100 to 1000 nM. For the same compound, the Ki in experiment [2] is less than 100 nM.

Consider `Cc1ncc(COc2cc(F)cc(Oc3ccc(-c4nn(CCCN5CCOCC5)c5ncnc(N)c45)cc3)c2)s1` [Compound 55], for which the EC50 in experiment [1] was less than 100 nM. Moreover, the Ki in experiment [2] is less than 100 nM.

Take `Nc1ncnc2c1c(-c1ccc(Oc3cccc(OCc4cncs4)c3)cc1)nn2CCCN1CCOCC1` [Compound 53]: in experiment [1], the EC50 is less than 100 nM. The Ki in experiment [2] was less than 100 nM.

For `Cc1ncc(COc2cccc(Oc3ccc(-c4nn(C5CCCC5)c5ncnc(N)c45)cc3)c2)s1` [Compound 37], the EC50 in experiment [1] was less than 100 nM. In addition, the Ki in experiment [2] was less than 100 nM.

Take `Cc1ncc(COc2cc(F)cc(Oc3ccc(-c4nn(CC5(C)COC5)c5ncnc(N)c45)cc3)c2)cn1` [Compound 119]: the EC50 in experiment [1] was 100 to 1000 nM. In addition, the Ki in experiment [2] is less than 100 nM.

`Cc1ncc(COc2cccc(Oc3ccc(-c4nn(C5CCOCC5)c5ncnc(N)c45)c(F)c3)c2)s1` [Compound 70]: the EC50 in experiment [1] is less than 100 nM. Further, the Ki in experiment [2] was less than 100 nM.

On to `Nc1ncnc2c1c(-c1ccc(Oc3cccc(OCc4ccccc4C(F)(F)F)c3)cc1)nn2C1CCCC1` [Compound 29], for which, in experiment [1], the EC50 is less than 100 nM. In addition, the Ki in experiment [2] is less than 100 nM.

Consider `Nc1ncnc2[nH]nc(-c3ccc(Oc4cccc(OCc5ccccc5)c4)cc3)c12` [Compound 1], for which the EC50 in experiment [1] was 100 to 1000 nM. Further, in experiment [2], the Ki is less than 100 nM.

With `Cc1ccc(COc2cc(F)cc(Oc3ccc(-c4nn(C5CCOCC5)c5ncnc(N)c45)cc3)c2)cn1` [Compound 65], the EC50 in experiment [1] is less than 100 nM. Moreover, the Ki in experiment [2] is less than 100 nM.

Regarding `Nc1ncnc2c1c(-c1ccc(Oc3cc(F)cc(CCc4ccccn4)c3)cc1)nn2C1CCOCC1` [Compound 86], the EC50 in experiment [1] lay within 100 to 1000 nM. Besides, in experiment [2], the Ki was less than 100 nM.

Consider `Cc1ncc(COc2cc(F)cc(Oc3ccc(-c4nn(CCO)c5ncnc(N)c45)cc3)c2)n1C` [Compound 115], for which the EC50 in experiment [1] was in the range of 100 to 1000 nM. Besides, the Ki in experiment [2] is less than 100 nM.

Turning to `Cc1ncc(COc2cc(F)cc(Oc3ccc(-c4nn(CCO)c5ncnc(N)c45)cc3)c2)s1` [Compound 81], in experiment [1], the EC50 was less than 100 nM. In experiment [2], the Ki is less than 100 nM.

As to `N#Cc1ccccc1OCc1cccc(Oc2ccc(-c3nn(C4CCOCC4)c4ncnc(N)c34)cc2)c1` [Compound 22], in experiment [1], the EC50 is less than 100 nM. Also, in experiment [2], the Ki is less than 100 nM.

As for `CCn1cncc1COc1cc(F)cc(Oc2ccc(-c3nn(C4CCOCC4)c4ncnc(N)c34)cc2)c1` [Compound 87], the EC50 in experiment [1] is less than 100 nM. Moreover, the Ki in experiment [2] was less than 100 nM.

Regarding `Cn1cncc1COc1cccc(Oc2ccc(-c3nn(C4CCOCC4)c4ncnc(N)c34)cc2)c1` [Compound 48], the EC50 in experiment [1] was less than 100 nM. The Ki in experiment [2] is less than 100 nM.

As to `N#Cc1ccccc1COc1cccc(Oc2ccc(-c3nn(C4CCCC4)c4ncnc(N)c34)cc2)c1` [Compound 12], the EC50 in experiment [1] lay in the range of 100 to 1000 nM. For the same compound, the Ki in experiment [2] was less than 100 nM.

As for `Nc1ncnc2c1c(-c1ccc(Oc3cccc(OCc4ccccc4)c3)cc1)nn2[C@@H]1CCCNC1` [Compound 4], the EC50 in experiment [1] was in the range of 100 to 1000 nM. Also, in experiment [2], the Ki was less than 100 nM.

For `Nc1ncnc2c1c(-c1ccc(Oc3cccc(OCc4cncs4)c3)cc1)nn2C1CCNCC1` [Compound 43], in experiment [1], the EC50 was in the range of 100 to 1000 nM. For the same compound, the Ki in experiment [2] was less than 100 nM.

`Cc1ncc(COc2cc(F)cc(Oc3ccc(-c4nn(CCCO)c5ncnc(N)c45)cc3)c2)cn1` [Compound 114]: the EC50 in experiment [1] fell in the range of 100 to 1000 nM. In addition, the Ki in experiment [2] is less than 100 nM.

Consider `Cc1ncc(COc2cc(F)cc(Oc3ccc(-c4nn(C5CCCC5)c5ncnc(N)c45)cc3)c2)n1C` [Compound 120], for which the EC50 in experiment [1] is less than 100 nM. For the same compound, in experiment [2], the Ki was less than 100 nM.

With `[2H]C([2H])(Oc1cc(F)cc(Oc2ccc(-c3nn(C4CCOCC4)c4ncnc(N)c34)cc2)c1)c1cncn1C` [Compound 75], in experiment [1], the EC50 is less than 100 nM. Besides, in experiment [2], the Ki was less than 100 nM.

Regarding `Cn1cncc1CCc1cc(F)cc(Oc2ccc(-c3nn(C4CCOCC4)c4ncnc(N)c34)cc2)c1` [Compound 67], the EC50 in experiment [1] lay within 100 to 1000 nM. In addition, the Ki in experiment [2] is less than 100 nM.

In the case of `Nc1ncnc2c1c(-c1ccc(Oc3cccc(OCc4ccc(Cl)cc4)c3)cc1)nn2C1CCCC1` [Compound 9], the EC50 in experiment [1] was in the range of 100 to 1000 nM. Further, the Ki in experiment [2] was less than 100 nM.

On to `Nc1ncnc2c1c(-c1ccc(Oc3cc(F)cc(OCc4cncn4C4CCCC4)c3)cc1)nn2C1CCOCC1` [Compound 77], for which the EC50 in experiment [1] was less than 100 nM. For the same compound, the Ki in experiment [2] is less than 100 nM.

Consider `Nc1ncnc2c1c(-c1ccc(Oc3cc(F)cc(OCc4cncn4CCOCc4ccccc4)c3)cc1)nn2C1CCOCC1` [Compound 97], for which the EC50 in experiment [1] was in the range of 100 to 1000 nM. The Ki in experiment [2] was less than 100 nM.
